Tests used:
[1] = biological target: T1, human NPFFR1 (hNPFFR1) receptor (Homo sapiens, UniProt Q9GZQ6); experiment: Human NPFFR1 evaluation using BRET biosensors (antagonist IC50); format: cell-based; settings: hNPFFR1 transiently over-expressed in HEK-293 T cells; BRET signal; stimulation by EC80 RFRP-3
T1 construct: expressed in transfected cells; host or cells: HEK-293 T cells, transient co-transfection with polyethylenimine
Method in brief: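 HEK-293T cells co-transfected with receptor, GαoB and Gi-effector BRET biosensor pair, assayed 48 h later. Compound 10 min, then EC80 RFRP-3 with 10 min luminescence read; IC50 from 20-concentration variable-slope fit, duplicate, two independent experiments.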

T1 sequence (Q9GZQ6 whole entry): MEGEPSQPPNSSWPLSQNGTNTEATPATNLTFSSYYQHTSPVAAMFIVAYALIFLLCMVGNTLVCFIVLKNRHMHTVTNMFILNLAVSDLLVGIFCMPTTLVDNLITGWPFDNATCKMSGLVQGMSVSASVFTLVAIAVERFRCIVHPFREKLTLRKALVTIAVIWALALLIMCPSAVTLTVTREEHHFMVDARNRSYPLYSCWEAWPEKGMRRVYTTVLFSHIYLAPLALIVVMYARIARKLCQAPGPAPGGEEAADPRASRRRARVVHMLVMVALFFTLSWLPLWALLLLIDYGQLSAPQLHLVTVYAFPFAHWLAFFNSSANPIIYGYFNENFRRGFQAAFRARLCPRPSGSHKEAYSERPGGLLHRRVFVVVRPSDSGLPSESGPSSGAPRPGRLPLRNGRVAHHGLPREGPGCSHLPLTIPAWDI

SMILES | melting point [°C] | IC50 [1] [nM]
CCCc1nc(N)ccc1-c1csc2ccccc12.Cl [Example 7, 5-Benzo[b]thiophen-3-yl-6-propyl-pyridin-2-ylamine] | 175 to 190 | 100 to 1000
Cl.Cn1nccc1-c1ccccc1-c1ccc(N)nc1N [Example 48, 3-(2-(1-methyl-1H-pyrazol-5-yl)phenyl)pyridine-2,6-diamine] | > 250 | > 1000
Cc1ccc2ccc(F)c(-c3ccc(N)nc3N)c2n1.Cl [Example 23, 3-(7-fluoro-2-methylquinolin-8-yl)pyridine-2,6-diamine] | 130 to 170 | < 100
Cl.Nc1ccc(-c2c(F)ccc3ccc(O)nc23)c(N)n1 [Example 62, 8-(2,6-diaminopyridin-3-yl)-7-fluoroquinolin-2-ol] | 210 to 230 | < 100
CCc1nc(N)ccc1-c1c(C)sc2ccccc12.Cl [Example 41, 6-Ethyl-5-(2-methylbenzothiophen-3-yl)pyridin-2-amine] | 70 to 72 | 100 to 1000
CC(C)(C)OC(=O)n1cc(-c2ccc(N)nc2N)c2ccccc21 [Example 17, Tert-butyl 3-(2,6-diamino-3-pyridyl)indole-1-carboxylate] | 150 to 154 | > 1000
Cl.Nc1ccc(-c2c(F)c(F)cc3ccc(O)nc23)c(N)n1 [Example 64, 8-(2,6-diaminopyridin-3-yl)-6,7-difluoroquinolin-2-ol] | > 250 | < 100
CCc1nc(N)ccc1-c1cccc2cccnc12.Cl [Example 47, 6-ethyl-5-(quinolin-8-yl)pyridin-2-amine] | > 250 | < 100
Nc1ccc(-c2c[nH]c3ccccc23)c(N)n1 [Example 18, 3-(1H-indol-3-yl)pyridine-2,6-diamine] | 152 to 155 | > 1000

Results, then the compound that gave them:

melting point [°C] | IC50 [1] [nM] | SMILES
110 to 145 | < 100 | CCc1nc(N)ccc1-c1c(F)ccc2ccc(N3CCCCCC3)nc12.Cl [Example 137, 5-(2-(azepan-1-yl)-7-fluoroquinolin-8-yl)-6-ethylpyridin-2-amine]
200 to 250 | 100 to 1000 | CCc1nc(N)ccc1-c1cccc2ccc(N)nc12.Cl.Cl [Example 92, 8-(6-amino-2-ethylpyridin-3-yl)quinolin-2-amine]
210 to 225 | < 100 | CCc1nc(N)ccc1-c1cccc2ccc(COC)nc12.Cl [Example 142, 6-ethyl-5-(2-(methoxymethyl)quinolin-8-yl)pyridin-2-amine]
120 to 141 | < 100 | CCc1nc(N)ccc1-c1cccc2ccc(N3CCC(F)(F)CC3)nc12.Cl [Example 132, 5-(2-(4,4-difluoropiperidin-1-yl)quinolin-8-yl)-6-ethylpyridin-2-amine]
120 to 180 | < 100 | Cl.Nc1ccc(-c2cccc3cccnc23)c(CC2CCC2)n1 [Example 68, 6-(cyclobutylmethyl)-5-(quinolin-8-yl)pyridin-2-amine]
> 250 | < 100 | CCc1nc(N)ccc1-c1cccc2ccc(-c3ccncc3)nc12.Cl [Example 122, 6-ethyl-5-(2-(pyridin-4-yl)quinolin-8-yl)pyridin-2-amine]
155 to 165 | 100 to 1000 | CCc1nc(N)ccc1-c1cccc2c1N(C)CCC2.Cl [Example 165, 6-ethyl-5-(1-methyl-1,2,3,4-tetrahydroquinolin-8-yl)pyridin-2-amine]
> 250 | 100 to 1000 | CCc1nc(N)ccc1-c1cccc2ccc(=O)[nH]c12.Cl [Example 154, 8-(6-amino-2-ethylpyridin-3-yl)quinolin-2(1H)-one]
121 to 125 | < 100 | CCc1nc(N)ccc1-c1cccc2ccc(C(=O)N(CC)C(C)C)nc12.Cl [Example 170, 8-(6-amino-2-ethylpyridin-3-yl)-N-ethyl-N-isopropylquinoline-2-carboxamide]
